From US20220033397A1, “PHARMACEUTICAL COMPOUNDS AND THEIR USE AS INHIBITORS OF UBIQUITIN SPECIFIC PROTEASE 19 (USP19)” (ALMAC DISCOVERY LIMITED, priority 2018, published 2022)
pIC50: −log10 of the molar value.

These compounds were tested against T1, Full-length USP19 (Homo sapiens, UniProt O94966) (assay: USP19 fluorescence polarisation (FP) homogeneous assay with Ubiquitin-Lys-TAMRA substrate). Conditions: 2.5 nM USP19, 30 min pre-incubation, average of at least two duplicate experiments.
T1 construct: Full-length USP19 was purchased from Boston Biochem (E-576); purchased Boston Biochem E-576
T1 sequence (O94966 1-1318): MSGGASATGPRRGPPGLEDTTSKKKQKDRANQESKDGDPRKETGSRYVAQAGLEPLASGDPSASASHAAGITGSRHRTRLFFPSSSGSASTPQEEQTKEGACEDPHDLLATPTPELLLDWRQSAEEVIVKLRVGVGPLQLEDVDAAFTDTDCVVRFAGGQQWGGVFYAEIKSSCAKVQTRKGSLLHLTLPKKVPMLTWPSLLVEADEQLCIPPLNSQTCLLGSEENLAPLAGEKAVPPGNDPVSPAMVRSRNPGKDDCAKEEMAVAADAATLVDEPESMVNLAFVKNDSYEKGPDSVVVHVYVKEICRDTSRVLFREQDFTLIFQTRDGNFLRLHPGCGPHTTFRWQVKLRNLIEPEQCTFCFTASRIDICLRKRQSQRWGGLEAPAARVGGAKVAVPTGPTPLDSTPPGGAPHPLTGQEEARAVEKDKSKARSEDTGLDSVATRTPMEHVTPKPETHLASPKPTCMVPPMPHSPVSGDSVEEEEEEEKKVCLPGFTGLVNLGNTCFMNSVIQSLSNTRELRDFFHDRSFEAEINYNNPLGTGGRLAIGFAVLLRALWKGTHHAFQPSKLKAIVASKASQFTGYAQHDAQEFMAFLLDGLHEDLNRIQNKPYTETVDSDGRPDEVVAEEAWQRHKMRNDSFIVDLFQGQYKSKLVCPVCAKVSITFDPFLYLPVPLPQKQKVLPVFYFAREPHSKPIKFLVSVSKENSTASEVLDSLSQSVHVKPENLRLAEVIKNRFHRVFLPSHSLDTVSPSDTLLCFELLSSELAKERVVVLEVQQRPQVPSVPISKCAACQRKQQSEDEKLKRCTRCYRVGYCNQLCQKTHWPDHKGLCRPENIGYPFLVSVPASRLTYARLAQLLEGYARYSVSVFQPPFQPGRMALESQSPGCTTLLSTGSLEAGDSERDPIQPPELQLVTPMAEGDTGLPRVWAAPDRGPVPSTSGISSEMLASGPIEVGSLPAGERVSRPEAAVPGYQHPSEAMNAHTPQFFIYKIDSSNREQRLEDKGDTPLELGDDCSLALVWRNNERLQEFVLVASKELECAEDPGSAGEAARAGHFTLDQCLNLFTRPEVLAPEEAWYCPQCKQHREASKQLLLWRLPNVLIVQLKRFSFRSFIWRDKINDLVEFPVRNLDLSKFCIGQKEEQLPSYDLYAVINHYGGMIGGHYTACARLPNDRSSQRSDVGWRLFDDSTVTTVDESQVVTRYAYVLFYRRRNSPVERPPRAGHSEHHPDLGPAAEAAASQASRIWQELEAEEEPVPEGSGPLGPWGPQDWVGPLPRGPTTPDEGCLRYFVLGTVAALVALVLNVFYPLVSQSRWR
Type: biochemical
Method in brief: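 Full-length USP19 preincubated 30 min at RT with inhibitor (200 μM to 2 μM series, 8–18 points) before adding 500 nM Ubiquitin-Lys-TAMRA substrate.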

Compound | pIC50
O=C(N1CC[C@@](O)(Cn2cnc(C3CC3)cc2=O)C2(CCCC2)C1)N1CCNC[C@H]1c1cc(F)ccc1F [Example 378, 6-Cyclopropyl-3-(((S)-7-((R)-2-(2,5-difluorophenyl)piper-azine-1-carbonyl)-10-hydroxy-7-aza-spiro[4.5]decan-10-yl)methyl)pyrimidin-4(3H)-one] | > 6.30
O=C(N1CC[C@@](O)(Cn2cnc(Cl)cc2=O)C2(CCCC2)C1)N1CCOC[C@H]1c1ccc(F)cc1 [Example 282, 6-Chloro-3-(((S)-7-((R)-3-(4-fluorophenyl)morpholine-4-carbonyl)-10-hydroxy-7-azaspiro[4.5]decan-10-yl)methyl)pyrimidin-4(3H)-one] | > 6.30
CC(CC1CCCCC1)C(=O)N1CCC(O)(CN2C(=O)c3ccccc3C2=O)C(C)(C)C1 (stereo not drawn) [Example 42, 2-((1-(3-Cyclohexyl-2-methylpropanoyl)-4-hydroxy-3,3-dimethylpiperidin-4-yl)methyl)isoindoline-1,3-dione] | 3.60 to 4.30
CC(=O)N1CCN(CC2(O)CCN(C(=O)[C@H](C)CC(F)(F)F)CC23CCCC3)C(=O)C1 (stereo partly drawn) [Example 112, 4-Acetyl-1-((10-hydroxy-7-((R)-4,4,4-trifluoro-2-methylbutanoyl)-7-azaspiro[4.5]decan-10-yl)methyl)piperazin-2-one] | 4.30 to 5.30
C[C@H](CC(F)(F)F)C(=O)N1CCC(O)(CN2CCN(c3ccccn3)CC2=O)C2(CCCC2)C1 (stereo partly drawn) [Example 113, 1-((10-Hydroxy-7-((R)-4,4,4-trifluoro-2-methylbutanoyl)-7-azaspiro[4.5]decan-10-yl)methyl)-4-(pyridin-2-yl)piperazin-2-one] | > 6.30
O=C(N1CCC(O)(Cn2cnc(-c3ccccc3)cc2=O)C2(CCCC2)C1)N1CCC[C@H]1Cc1cccs1 (stereo partly drawn) [Example 267, 3-((10-Hydroxy-7-((S)-2-(thiophen-2-ylmethyl)pyrrolidine-1-carbonyl)-7-azaspiro[4.5]decan-10-yl)methyl)-6-phenylpyrimidin-4(3H)-one] | 3.60 to 4.30
C[C@H](CC(F)(F)F)C(=O)N1CCC(O)(Cn2cnc3cc(F)c(Cl)cc3c2=O)C2(CCCC2)C1 (stereo partly drawn) [Example 149, 6-Chloro-7-fluoro-3-((10-hydroxy-7-((R)-4,4,4-trifluoro-2-methylbutanoyl)-7-azaspiro[4.5]decan-10-yl)methyl)quinazolin-4(3H)-one] | 4.30 to 5.30
CSc1ncc2c(=O)n(CC3(O)CCN(C(=O)[C@H](C)CC4CCCCC4)CC34CCCC4)cnc2n1 (stereo partly drawn) [Example 160, 3-((7-((R)-3-Cyclohexyl-2-methylpropanoyl)-10-hydroxy-7-azaspiro[4.5]decan-10-yl)methyl)-7-(methylthio)pyrimido[4,5-d]pyrimidin-4(3H)-one] | > 6.30
C[C@H](CC(F)(F)F)C(=O)N1CCC(O)(CN2C(=O)CC2c2ccccc2)C2(CCCC2)C1 (stereo partly drawn) [Example 101, 1-((10-Hydroxy-7-((R)-4,4,4-trifluoro-2-methylbutanoyl)-7-azaspiro[4.5]decan-10-yl)methyl)-4-phenylazetidin-2-one] | 3.60 to 4.30
O=C(N1CC(C2CC2)C1)N1CCC(O)(Cn2cnc(-c3ccccc3)cc2=O)C2(CCCC2)C1 (stereo not drawn) [Example 252, 3-((7-(3-Cyclopropylazetidine-1-carbonyl)-10-hydroxy-7-azaspiro[4.5]decan-10-yl)methyl)-6-phenylpyrimidin-4(3H)-one] | 4.30 to 5.30
CC1(C)CN(C(=O)NCc2ccccc2)CCC1(O)Cn1cnc(-c2ccccc2F)cc1=O (stereo not drawn) [Example 195, N-Benzyl-4-((4-(2-fluorophenyl)-6-oxopyrimidin-1(6H)-yl)methyl)-4-hydroxy-3,3-dimethylpiperidine-1-carboxamide] | 4.30 to 5.30
C[C@H](CC1CCCCC1)C(=O)N1CCC(O)(CN2CC(Cc3ccccc3)CC2=O)C(C)(C)C1 (stereo partly drawn) [Example 30, 4-Benzyl-1-((1-((R)-3-cyclohexyl-2-methylpropanoyl)-4-hydroxy-3,3-dimethylpiperidin-4-yl)methyl)pyrrolidin-2-one] | 5.30 to 6.30
O=C(NCC1=CCCOC1)N1CCC(O)(Cn2cnc(-c3ccccc3)cc2=O)C2(CCCC2)C1 (stereo not drawn) [Example 259, N-((5,6-Dihydro-2H-pyran-3-yl)methyl)-10-hydroxy-10-((6-oxo-4-phenylpyrimidin-1(6H)-yl)methyl)-7-azaspiro[4.5]decane-7-carboxamide] | 4.30 to 5.30
O=C(N1CCC(O)(Cn2cnc(-c3ccccc3)cc2=O)C2(CCCC2)C1)N1CCNCC1C1CC1 (stereo not drawn) [Example 275, 3-((7-(2-Cyclopropylpiperazine-1-carbonyl)-10-hydroxy-7-azaspiro[4.5]decan-10-yl)methyl)-6-phenylpyrimidin-4(3H)-one] | 4.30 to 5.30
O=C(N1CC[C@@](O)(Cn2cnc(-c3ccccc3)cc2=O)C2(CCCC2)C1)N1CCNC[C@H]1c1ccccc1F [Example 370, 3-(((10S)-7-(2-(2-Fluorophenyl)pipera-zine-1-carbonyl)-10-hydroxy-7-azaspiro[4.5]decan-10-yl)methyl)-6-phenylpyrimidin-4(3H)-one] | > 6.30
CN(CC1CC(F)C1)C(=O)N1CCC(O)(Cn2cnc(-c3ccccc3)cc2=O)C2(CCCC2)C1 (stereo not drawn) [Example 239, N-((3-Fluorocyclobutyl)methyl)-10-hydroxy-N-methyl-10-((6-oxo-4-phenylpyrimidin-1(6H)-yl)methyl)-7-azaspiro[4.5]decane-7-carboxamide] | 4.30 to 5.30
N=S1(=O)CCN(C(=O)N2CC[C@@](O)(Cn3cnc(-c4ccccc4)cc3=O)C3(CCCC3)C2)[C@H](c2cc(F)ccc2F)C1 (mixture of isomers) [Example 395] | > 6.30
Cn1cc(-c2cc(=O)n(C[C@]3(O)CCN(C(=O)N4CCOC[C@H]4c4ccccc4)CC34CCCC4)cn2)cn1 [Example 225, 3-(((S)-10-Hydroxy-7-((R)-3-phenylmorpholine-4-carbonyl)-7-azaspiro[4.5]decan-10-yl)methyl)-6-(1-methyl-1H-pyrazol-4-yl)pyrimidin-4(3H)-one] | > 6.30
COc1cc2ccn(CC3(O)CCN(C(=O)[C@H](C)CC(F)(F)F)CC34CCCC4)c(=O)c2cc1OC (stereo partly drawn) [Example 140, 2-((10-Hydroxy-7-((R)-4,4,4-trifluoro-2-methylbutanoyl)-7-azaspiro[4.5]decan-10-yl)methyl)-6,7-dimethoxyisoquinolin-1(2H)-one] | 3.60 to 4.30
O=C(N1CC[C@@](O)(Cn2cnc(-c3ccccc3)cc2=O)C2(CCCC2)C1)N1CCNC[C@H]1c1cc(F)ccc1F [Example 373, 3-(((S)-7-((R)-2-(2,5-Difluorophenyl)piper-azine-1-carbonyl)-10-hydroxy-7-azaspiro[4.5]decan-10-yl)methyl)-6-phenylpyrimidin-4(3H)-one] | > 6.30
O=C(N1CC[C@@](O)(Cn2cnc(-c3ccccc3F)cc2=O)C2(CCCC2)C1)N1CCNC[C@H]1c1cccc(F)c1 [Example 355, 6-(2-Fluorophenyl)-3-(((S)-7-((R)-2-(3-fluorophenyl)pipera-zine-1-carbonyl)-10-hydroxy-7-aza-spiro[4.5]decan-10-yl)methyl)pyrimidin-4(3H)-one] | > 6.30
O=C(N1CC[C@@](O)(Cn2cnc(N3CC4CC4C3)cc2=O)C2(CCCC2)C1)N1CCNC[C@H]1c1ccccc1 (stereo partly drawn) [Example 352, 6-(3-Aza-bicyclo[3.1.0]hexan-3-yl)-3-(((S)-10-hydroxy-7-((R)-2-phenylpiperazine-1-carbonyl)-7-aza-spiro[4.5]decan-10-yl)methyl)pyrimidin-4(3H)-one] | > 6.30
O=C(N1CCC(O)(Cn2cnc(-c3ccccc3)cc2=O)CC1)N1CCOC[C@H]1c1ccccc1 [Example 295, (R)-3-((4-Hydroxy-1-(3-phenylmorpholine-4-carbonyl)piperidin-4-yl)methyl)-6-phenylpyrimidin-4(3H)-one] | 5.30 to 6.30
O=C(NCc1ccccc1)N1CCC(O)(Cn2cnc(Cl)cc2=O)C2(CCCC2)C1 (stereo not drawn) [Example 198, N-Benzyl-10-((4-chloro-6-oxopyrimidin-1(6H)-yl)methyl)-10-hydroxy-7-azaspiro[4.5]decane-7-carboxamide] | 3.60 to 4.30
